Measurements from patent US9475817B2 (BRISTOL-MYERS SQUIBB COMPANY, priority 2012, dated 2016).

Columns and labels:
CK1δ = CK1δ (Homo sapiens (Human), UniProt P48730); test: CK1δ kinase assay (Caliper LabChip, fluoresceinated peptide substrate); format: biochemical; details: 200 pM CK1δ, 50 μM ATP, 1.5 μM peptide substrate, 22 hours room temperature
Protocol: (§1) CK1ε and CK1δ Kinase Assays
(§2) The kinase assay was performed in V-bottom 384-well plates. […] The reaction was incubated at room temperature for 22 hours and terminated by adding 45 μl of 35 mM EDTA to each sample. […] Compounds were dissolved at 10 mM in dimethylsulfoxide (DMSO) and evaluated at eleven concentrations. IC50 values were derived by non-linear regression analysis.

CK1ε = CK1ε (Homo sapiens (Human), UniProt P49674); test: CK1ε kinase assay (Caliper LabChip, fluoresceinated peptide substrate); format: biochemical; details: 200 pM CK1ε, 50 μM ATP, 1.5 μM peptide substrate, 22 hours room temperature
CK1ε, sequence (P49674 whole entry): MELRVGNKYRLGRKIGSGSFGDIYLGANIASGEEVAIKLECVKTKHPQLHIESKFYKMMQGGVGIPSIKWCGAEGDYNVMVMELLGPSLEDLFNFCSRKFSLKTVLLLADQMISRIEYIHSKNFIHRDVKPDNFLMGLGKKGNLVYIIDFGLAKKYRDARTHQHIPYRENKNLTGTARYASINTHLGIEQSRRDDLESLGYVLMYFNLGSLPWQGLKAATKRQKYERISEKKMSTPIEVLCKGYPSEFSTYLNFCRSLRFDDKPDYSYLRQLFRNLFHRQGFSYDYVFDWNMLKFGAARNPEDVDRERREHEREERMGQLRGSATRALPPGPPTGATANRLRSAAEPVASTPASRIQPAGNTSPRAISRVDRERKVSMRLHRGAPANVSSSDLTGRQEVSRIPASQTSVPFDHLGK
Protocol: as §1, §2

CK1δ, sequence (P48730 whole entry): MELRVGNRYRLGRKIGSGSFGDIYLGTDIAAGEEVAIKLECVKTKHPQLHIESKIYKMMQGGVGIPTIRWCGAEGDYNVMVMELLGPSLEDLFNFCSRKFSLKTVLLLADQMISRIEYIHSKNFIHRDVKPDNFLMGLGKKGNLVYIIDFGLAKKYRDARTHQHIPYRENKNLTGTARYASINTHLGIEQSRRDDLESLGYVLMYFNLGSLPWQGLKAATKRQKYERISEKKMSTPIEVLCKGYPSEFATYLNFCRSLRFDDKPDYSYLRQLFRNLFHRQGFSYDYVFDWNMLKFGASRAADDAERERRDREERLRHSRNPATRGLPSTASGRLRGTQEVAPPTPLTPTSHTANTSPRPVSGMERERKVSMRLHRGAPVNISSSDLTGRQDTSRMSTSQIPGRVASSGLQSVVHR

| Structure (SMILES) | IC50 (CK1δ) | IC50 (CK1ε) |
| --- | --- | --- |
| Cc1ccncc1C(=O)Nc1cn2nc(-c3cn(C)nc3-c3ccc(F)cc3)ccc2n1 [Compound 73, N-(6-(3-(4-fluorophenyl)-1-methyl-1H-pyrazol-4-yl)imidazo[1,2-b]pyridazin-2-yl)-4-methylnicotinamide] | 2.6 nM | 6.4 nM |
| O=C(Nc1cn2nc(-c3cn(C4CC4)nc3-c3ccc(F)cc3)ccc2n1)C1CC1 [Compound 101, N-(6-(1-Cyclopropyl-3-(4-fluorophenyl)-1H-pyrazol-4-yl)imidazo[1,2-b]pyridazin-2-yl)cyclopropanecarboxamide] | 28.1 nM | 170 nM |
| Cn1cc(-c2ccc3nc(NC(=O)c4cc(-c5ccc(F)cc5)ncn4)cn3n2)c(-c2ccc(F)cc2)n1 [Compound 33, 6-(4-fluorophenyl)-N-(6-(3-(4-fluorophenyl)-1-methyl-1H-pyrazol-4-yl)imidazo[1,2-b]pyridazin-2-yl)pyrimidine-4-carboxamide] | 30.4 nM | 454 nM |
| Cn1nc(-c2ccc(F)cc2)c(-c2ccc3nc(NC(=O)c4ccncc4)cn3n2)c1C1CCN(C2CCOCC2)CC1 [Compound 167, N-(6-(3-(4-fluorophenyl)-1-methyl-5-(1-(tetrahydro-2H-pyran-4-yl)piperidin-4-yl)-1H-pyrazol-4-yl)imidazo[1,2-b]pyridazin-2-yl)isonicotinamide] | 2.4 nM | 7.7 nM |

Stronger by IC50 (CK1δ), values ahead:

| IC50 (CK1δ) | IC50 (CK1ε) | Structure (SMILES) |
| --- | --- | --- |
| 1 nM | 0.4 nM | Cc1nc(-c2cccnc2)sc1C(=O)Nc1cn2nc(-c3c(-c4ccc(F)cc4)nn(C)c3C3CCN(Cc4ccon4)CC3)ccc2n1 [Compound 176, N-(6-(3-(4-fluorophenyl)-5-(1-(isoxazol-3-ylmethyl)piperidin-4-yl)-1-methyl-1H-pyrazol-4-yl)imidazo[1,2-b]pyridazin-2-yl)-4-methyl-2-(pyridin-3-yl)thiazole-5-carboxamide] |
| 0.6 nM | 6.7 nM | Cn1nc(-c2ccc(F)cc2)c(-c2ccc3nc(NC(=O)c4ccncc4)cn3n2)c1N1CCN(C(=O)CC(F)(F)F)CC1 [Compound 132, N-(6-(3-(4-Fluorophenyl)-1-methyl-5-(4-(3,3,3-trifluoropropanoyl)piperazin-1-yl)-1H-pyrazol-4-yl)imidazo[1,2-b]pyridazin-2-yl)isonicotinamide] |
| 0.3 nM | 10.1 nM | Cn1nc(-c2ccc(F)cc2)c(-c2ccc3nc(NC(=O)c4ccnc(F)c4)cn3n2)c1N1CCN(CCCF)CC1 [Compound 119, 2-Fluoro-N-(6-(3-(4-fluorophenyl)-5-(4-(3-fluoropropyl)piperazin-1-yl)-1-methyl-1H-pyrazol-4-yl)imidazo[1,2-b]pyridazin-2-yl)isonicotinamide] |
